For 14 molecules, TGI and GI50 results are on record in PubChem BioAssay (NCI).

Structures are written as SMILES. “And” between values parts separate entries of the source, which are not always exact repeats. Identical values can stand only once.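 Cells were grown in 96-well plates and exposed to each compound for 48 hours at five concentrations; endpoints were interpolated linearly between bracketing concentrations, or set to the highest concentration if not reached. At the GI50, growth is halved. At the TGI there is no net growth.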

Among the test systems are EKVX NSCLC; TK-10 renal; SN12C renal; CCRF-CEM leukemia; MALME-3M melanoma; UO-31 renal; HOP-92 NSCLC; SK-OV-3 ovarian.
What all share (assay): inhibition of tumour cell growth, NCI panel, 48 h

For `CC(C)(C)CC(C)(C)c1cc2c(O)c(c1)Cc1cc(C(C)(C)CC(C)(C)C)cc(c1O)Cc1cc(C(C)(C)CC(C)(C)C)cc(c1O)Cc1cc(C(C)(C)CC(C)(C)C)cc(c1O)Cc1cc(C(C)(C)CC(C)(C)C)cc(c1O)C2`, the TGI in the assay with EKVX NSCLC, in the assay on TK-10 renal, in the assay with SN12C renal, in the assay with CCRF-CEM leukemia, with MALME-3M melanoma and in the assay with UO-31 renal was > 100 µM throughout. Also, in the assay on HOP-92 NSCLC, the TGI is > 100 µM.

In the case of `COc1cc(Nc2nc3ccccc3nc2NS(=O)(=O)c2ccc(NC(=O)c3ccc(C)c(OC)c3)cc2)cc(OC)c1`, the GI50 in the assay on EKVX NSCLC was 4.62 µM and 0.935 µM. For the same molecule, the TGI was 37.6 µM and 54.1 µM and > 6.03 µM in the assay on TK-10 renal; > 100 µM with SN12C renal; > 100 µM and 71.6 µM and > 10 µM in the assay with CCRF-CEM leukemia; 9.07 µM and 46.1 µM and > 5.04 µM with UO-31 renal.

Take `CN1CC(=O)N(C)c2ncn(Cc3ccccc3)c2C1=O`: the TGI with EKVX NSCLC, with TK-10 renal, in the assay with SN12C renal, with CCRF-CEM leukemia, with MALME-3M melanoma and in the assay with SK-OV-3 ovarian was > 100 µM in each case. In the assay with UO-31 renal, the TGI is > 100 µM.

In the case of `COc1cc(OC)c(SSCCCCS(=O)O)c(OC)c1`, the TGI in the assay with EKVX NSCLC stood at 31.3 µM; in the assay on TK-10 renal, 42.9 µM; with SN12C renal, 33.6 µM; in the assay with CCRF-CEM leukemia, 42.9 µM; in the assay on MALME-3M melanoma, 31 µM; in the assay on SK-OV-3 ovarian, 38.6 µM. The molecule further displayed a TGI with UO-31 renal of 40.6 µM.

For the molecule `NC(=O)CCC(Nc1c2ccccc2nc2ccccc12)C(=O)O` (stereo unspecified), the TGI with EKVX NSCLC, with TK-10 renal, in the assay on SN12C renal, in the assay with CCRF-CEM leukemia, in the assay on MALME-3M melanoma and with HOP-92 NSCLC was > 100 µM each time.

For the molecule `O=C(c1ccccc1)c1c(-c2ccccc2)sc2nc3ccccc3nc12`, the TGI with EKVX NSCLC, in the assay with TK-10 renal, with SN12C renal, with CCRF-CEM leukemia, with MALME-3M melanoma and in the assay with SK-OV-3 ovarian was > 100 µM throughout. Moreover, the TGI in the assay on HOP-92 NSCLC was > 100 µM.

For the molecule `CC(=O)c1cccc(C)c1C(=O)O`, the TGI with EKVX NSCLC, in the assay on TK-10 renal, with SN12C renal, with CCRF-CEM leukemia, with MALME-3M melanoma and with SK-OV-3 ovarian was > 100 µM in each case. The TGI with UO-31 renal was > 100 µM.

As to `COC(=O)C1=C(O)c2cc(-c3ccccc3)c(-c3ccccc3)c(C#N)c2NC(=O)C1`, the TGI in the assay on EKVX NSCLC, with SN12C renal, with CCRF-CEM leukemia and in the assay on UO-31 renal was > 100 µM each time.

For `COC(=O)CC[C@]1(C)O[C@H]2[C@H]([C@@H](C)CCCC(C)=O)OC(=O)[C@@H]2C[C@H]1O`, the GI50 in the assay with EKVX NSCLC is > 100 µM; with TK-10 renal it was 68.7 µM; in the assay on SN12C renal it was > 100 µM; in the assay on CCRF-CEM leukemia it was > 100 µM; in the assay on SK-OV-3 ovarian, > 100 µM; in the assay with UO-31 renal, > 100 µM. The GI50 in the assay on HOP-92 NSCLC is > 100 µM. Moreover, the TGI with EKVX NSCLC, with TK-10 renal, with SN12C renal, with CCRF-CEM leukemia, in the assay on SK-OV-3 ovarian and in the assay with UO-31 renal was > 100 µM throughout. For the same molecule, the TGI in the assay on HOP-92 NSCLC was > 100 µM.

In the case of `COc1ccc2c3c([nH]c2c1[N+](=O)[O-])C(C)N(Cc1ccc([N+](=O)[O-])cc1)CC3` (stereo unspecified), the TGI with EKVX NSCLC was > 100 µM; in the assay with TK-10 renal it was > 100 µM; in the assay on SN12C renal, 60.7 µM; with CCRF-CEM leukemia it was > 100 µM; in the assay on UO-31 renal it was > 100 µM.

With `O=C1O[C@H](c2ccccc2)[C@@H]2CC3(CCN12)OCCO3`, the TGI with EKVX NSCLC, with TK-10 renal, in the assay on SN12C renal, in the assay with CCRF-CEM leukemia, in the assay on UO-31 renal and in the assay on HOP-92 NSCLC was > 100 µM in each case.

`CN(C)CCNC(=O)c1cccc2nc3cc(Cl)ccc3nc12`: the TGI in the assay with EKVX NSCLC was 18.1 µM; in the assay with TK-10 renal, 15 µM; with SN12C renal it was 10.7 µM; in the assay with MALME-3M melanoma, 4.8 µM; in the assay with SK-OV-3 ovarian, > 40.3 µM; in the assay on UO-31 renal, > 29.1 µM. In addition, the TGI in the assay on HOP-92 NSCLC is > 23.8 µM.

With `Cn1nc(-c2ccccc2)c(C(=O)/C=C/c2ccc(Cl)cc2)c(N2CCCCC2)c1=O`, the TGI in the assay on EKVX NSCLC is 15.3 µM; with TK-10 renal, 14.3 µM; with SN12C renal, 20.5 µM; with CCRF-CEM leukemia, 5.56 µM; in the assay on SK-OV-3 ovarian, 9.81 µM; in the assay with UO-31 renal, 3.03 µM. The molecule further had a TGI in the assay with HOP-92 NSCLC of 5.14 µM.

Turning to `CC(=O)OC1CCn2nnc(CO)c21` (stereo unspecified), the TGI in the assay on EKVX NSCLC, in the assay with TK-10 renal, with SN12C renal, with MALME-3M melanoma, in the assay on SK-OV-3 ovarian and with UO-31 renal was > 100 µM each time. Moreover, the TGI in the assay with HOP-92 NSCLC is > 100 µM.
